Source: patent publication US20090149482A1, “STEREOCHEMICALLY DEFINED DIPEPTIDE ESTERS OF ANTIVIRAL AGENTS FOR ENHANCED OCULAR TREATMENT” (priority 2001, published 2009)
Read-outs that look alike come from different tables or passages of the source. Marks after values point to notes of the source that are not given here. Where a SMILES comes first, the peptide text is derived from it. [ ]: non-standard residue; d: D form. Sar = CNCC(=O)O

What was measured:
[1] = Plasma pharmacokinetics of stereoisomeric prodrugs following oral administration in rats
[2] = system: HCMV; assay: In vitro antiviral screening, CPE inhibition in HFF cells; type: cell-based, human cytomegalovirus; conditions: Human betaherpesvirus 5, HFF; HCMV, CPE Inhibition
[3] = system: Caco-2 cell suspension
[4] = system: rabbit corneal cell line (SIRC); conditions: SIRC cells
[5] = for first order hydrolytic rate constant k: 37° C.
[6] = system: HSV-1 strain McKrae; assay: HSV-1 epithelial keratitis rabbit model, topical treatment, SLE scores; type: in vivo
From the text: The rabbit eye is an excellent model to study acute HSV-1 epithelial keratitis. Also, spontaneous and induced ocular HSV-1 shedding and corneal epithelial disease in rabbits has been used as a model of human ocular HSV-1 reactivation and recurrence. HSV-1 strain McKrae was used in studies for epithelial keratitis. HSV-1 strain RE was used for studies of HSV stromal keratitis.
i) Epithelial Keratitis: A group of ten rabbits was used to study each compound. Both eyes of all rabbits were used. An aqueous vehicle (like a placebo) and one positive control were obtained using 1% TFT (Viroptic®). Each compound at 1% concentration (TFT=33 mM, Gly-Gly-ACV=26.6 mM, Val-Val-ACV=18.6 mM) were applied (50 μl) topically 5 times per day every two hours starting at 8:00 a.m. and ending at 4:00 p.m. The treatment began on the 3rd post-inoculation day and continued for 5 consecutive days. Slit-lamp examinations were performed once every day for 8 days and thereafter once every other day until lesions resolved.

[7] = target: T1, hPEPT1 (Homo sapiens, UniProt P46059); assay: [3H] Glycylsarcosine uptake and its inhibition in Caco-2 cells (affinity towards peptide transporter); type: cell-based; conditions: for effect on the uptake of [3H] Gly-Sar: Caco-2, pH 6.0, 10 minutes; for Ki: read-out: Ki
T1 construct: endogenous in cells; host or cells: Caco-2 (human colon carcinoma, ATCC)
T1 sequence (P46059 1-708): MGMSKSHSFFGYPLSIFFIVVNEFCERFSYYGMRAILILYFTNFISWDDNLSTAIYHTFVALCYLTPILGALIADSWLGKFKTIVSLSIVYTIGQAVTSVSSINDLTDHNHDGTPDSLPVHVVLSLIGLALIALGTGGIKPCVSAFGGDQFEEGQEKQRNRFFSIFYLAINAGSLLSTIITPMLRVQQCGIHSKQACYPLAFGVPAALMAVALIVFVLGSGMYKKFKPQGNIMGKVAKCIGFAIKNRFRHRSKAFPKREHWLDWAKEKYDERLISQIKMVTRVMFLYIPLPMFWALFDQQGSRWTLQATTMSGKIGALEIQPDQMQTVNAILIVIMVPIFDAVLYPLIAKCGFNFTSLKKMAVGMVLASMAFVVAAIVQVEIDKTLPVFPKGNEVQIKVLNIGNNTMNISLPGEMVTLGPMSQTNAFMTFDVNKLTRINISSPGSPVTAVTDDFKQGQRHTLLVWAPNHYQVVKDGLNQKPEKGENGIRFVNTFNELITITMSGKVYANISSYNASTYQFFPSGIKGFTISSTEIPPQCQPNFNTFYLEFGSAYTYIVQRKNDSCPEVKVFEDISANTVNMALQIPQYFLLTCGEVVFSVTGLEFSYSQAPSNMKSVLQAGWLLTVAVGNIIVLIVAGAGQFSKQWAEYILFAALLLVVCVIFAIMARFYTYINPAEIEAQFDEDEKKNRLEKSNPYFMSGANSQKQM
From the text: Materials: [^3H] Glycylsarcosine (Gly-Sar; 4 Ci/mmol) was purchased from Moravek Biochemicals (Brea, Calif.) and [^14C] Mannitol (50 mCi/mmol) was supplied by Amersham (Piscataway, N.J.). Human colon carcinoma derived Caco-2 cells were obtained from American Type Culture Collection (ATCC, Rockville, Md.). The growth medium, Dulbecco's modified Eagle Medium was obtained from Life Technologies (Grand Island, N.Y.). […] Fetal bovine serum (FBS) was purchased from JRH Biosciences (Lenexa, Kans.). Culture flasks (75 cm^2 growth area), polyester Transwells® (pore size 0.4 Cm with diameter 6.5 mm) and polyester membranes (pore size 0.4 Cm) were procured from Costar (Bedford, Mass.). The buffer components and solvents were obtained from Fisher Scientific (St. Louis, Mo.). All the di-peptide esters of acyclovir were custom synthesized in our laboratory. […] Cell Culture: All cultures were maintained in humidified incubator at 37° C. with a 5% carbon dioxide in air atmosphere. Caco-2 cells were obtained at passage 25 from American Type Culture Collection (ATCC) and grown in plastic tissue culture flasks. […] When 80% confluent, these cells were removed by treating them with Trypsin/EDTA and plated at a density of 100,000 cells/cm^2 on collagen coated plastic dishes containing clear polyester membranes (0.636 cm^2, […]) or 12-well tissue culture treated plastic plates. Cells were then grown in medium containing 10% FBS (heat-inactivated). […] [^14C] […] Metabolism studies in Cell Suspensions: Confluent Caco-2 cells, grown in tissue culture flasks were isolated with the aid of mechanical scraper and washed thrice with DPBS. […] One-hundred micro-liters of samples were withdrawn at predetermined time intervals and the sample was purified by precipitating the cellular proteins into the organic solvent mixture and stored at −80° C. until further analysis. The protein content of the cell suspension was determined by the method of Bradford using bovine serum albumin as the standard (BioRad protein estimation kit, Hercules, Calif.). […] Transport studies: Transport experiments were done using Side-Bi-Side™ diffusion cells (type VSC-1, Crown Glass Company Inc.) and Transwell® inserts. Prior to the experiment with Gly-Sar, Caco-2 cell monolayers grown on the clear polyester membranes and Transwell® inserts were washed with DPBS (pH 6.0) and incubated at 37° C. Freshly prepared drug solutions in DPBS (pH 6.0) was placed in the donor chamber and the receiver chamber was filled with DPBS. The volumes of donor and receptor chambers were 3 ml each for Side-Bi-Side™ diffusion cells and 0.5 ml and 1.5 ml respectively for Transwell® inserts. […] The samples were stored at −80° C. until analyzed HPLC. All experiments were performed at 37° C. […] The concentration dependent uptake of glycylsarcosine was studied using [^3H] […] For Dixon plots and Dose Response studies [^3H] […] Following incubation, the cell monolayers were washed three times with ice-cold HEPES buffer to terminate the uptake experiment. After the washings cells were lysed overnight using 1 ml 0.1% (w/v) Triton X-100 in 0.3 N NaOH at room temperature. Aliquots (500 μl) from each well were then transferred to scintillation vials containing 5 ml scintillation cocktail (Fisher Scientific, Fairlawn, N.J.). […] The amount of protein in the cell lysate was measured by the BioRad protein estimation kit using bovine serum albumin as standard (BioRad Protein estimation Kit, Hercules, Calif.). Analytical Procedures: All samples were assayed using HPLC. […] The column used was a C18 Luna column 4.6×250 mm (Phenomenex). The mobile phase consisted of a mixture of buffer and an organic modifier. The percentage of organic phase was varied in order to elute compounds of interest.

[8] = in vitro; conditions: human, Caco-2, pH 7.4
[9] = system: oligopeptide transporter on the rabbit cornea
[10] = substrate: CN(CC(=O)O)C(=O)CN; assay: [3H] Glycylsarcosine uptake and its inhibition in Caco-2 cells (affinity towards peptide transporter); type: cell-based, human; conditions: other: Gly-Sar alone, 37.0 °C
[11] = plasma analyte following oral administration of LDACV in rats

Molecule: CC(C)[C@@H](N)C(=O)OCCOCn1cnc2c(=O)[nH]c(N)nc21 [DACV]
- AUC [1, 11]: 261.89 ± 23.64 µM·min
- Cmax [1, 11]: 8.68 ± 1.24 µM
- Tmax [1, 11]: 15 min

Molecule: CC(C)C(N)C(=O)NC(C(=O)OCCOCn1cnc2c(=O)[nH]c(N)nc21)C(C)C [DLACV, D-valine-L-valine-acyclovir]
- concentrations in the systemic circulation ([1]; oral administration in rats): Very little concentrations were observed

Molecule: Nc1nc(O)c2ncn(COC(CO)CO)c2n1 [GCV, 2-amino-1,9-[[2-hydroxy-1-(hydroxymethyl)ethoxy]methyl]-6H-purin-6-one]
- EC50 [2]: 0.94 µM

Molecule: NCC(=O)NCC(=O)OCCOCn1cnc2c(=O)[nH]c(N)nc21 [Gly-Gly-ACV]
- intact drug after incubation with the cell suspension ([3]; Caco-2 cell suspension): no intact drug detected within one minute
- percent survival ([4]; 0.25 mM): 104.6%
- percent survival ([4]; 0.5 mM): 94.7%
- percent survival ([4]; 1 mM): 90.1%
- percent survival ([4]; 2 mM): 86.2%
- percent survival ([4]; 5 mM): 63.8%
- percent survival ([4]; 10 mM): 49.32%
- stability as an ophthalmic solution ([5]; pH 5.6, concluded from rate constants): stable for two years
- first order hydrolytic rate constant k ([5]; pH 7.4): 6.75 k × 10^3 min^−1
- first order hydrolytic rate constant k ([5]; pH 9.0): 14.85 k × 10^3 min^−1
- efficacy relative to TFT (SLE scores) [6]: more effective than TFT
- Concentration required to achieve an SLE Score of 0.3 ([6]; 14 days post-inoculation, 1% topical 5 times per day): 26.6 mM

Molecule: CN(CC(=O)O)C(=O)CN [Gly-Sar, glycylsarcosine, reference compound] (H-Gly-[Sar]-OH)
- effect on the uptake of [3H] Gly-Sar [7]: significantly inhibited
- Kd (rate constant of nonsaturable uptake component) ([7]; Caco-2 uptake of glycylsarcosine): 12.2 ± 0.57 µL/min/mg
- Ki ([7]; Dixon): 2350 ± 670 µM
- Ki ([7]; Dose Response (Cheng and Prusoff from IC50)): 2490 µM
- Vmax of glycylsarcosine uptake ([7]; Gly-Sar alone, Michaelis-Menten): 0.078 ± 0.005 µmol/min/mg
- IC50 ([7]; dose response curves, read-out: IC50 of inhibition of [3H] Gly-Sar uptake): 2780 ± 340 µM

Molecule: NCC(=O)NC(Cc1ccc(O)cc1)C(=O)OCCOCn1cnc2c(=O)[nH]c(N)nc21 (stereo not drawn) [Gly-Tyr-ACV]
- 10^2 × kobs ([3]; Caco-2 cell suspension at pH 7.4, * = no intact drug detected during the experiment): 3.21 ± 0.46 min^−1mg^−1 protein
- Vmax of Gly-Sar uptake in presence of the drug ([7]; Gly-Sar with drug (10 mM), Lineweaver-Burk): 0.094 ± 0.11 µmol/min/mg
- Ki ([7]; Lineweaver-Burk): 3940 ± 610 µM
- Ki ([7]; Michaelis-Menten): 3560 ± 1980 µM
- half-life at 0.2 mM [8]: 21.5 ± 3.2 min

Molecule: Nc1ccc(C(=O)NCC(=O)O)cc1 [PAH, para-aminohippuric acid, reference compound]
- transport of Val-ACV (percent of control) ([9]; 1 mM Val-ACV in presence of 10 mM compound): 99.6±2.6% of control

Molecule: CC[N+](CC)(CC)CC [TEA, tetraethlyammonium, reference compound]
- transport of Val-ACV (percent of control) [9]: 101.3±1.1% of control

Molecule: NCC(=O)OCCOCn1cnc2c(=O)[nH]c(N)nc21 [glycine-ACV]
- effect on the uptake of [3H] Gly-Sar [7]: did not inhibit

Molecule: Nc1nc2c(ncn2COCCOC(=O)C(N)Cc2ccc(O)cc2)c(=O)[nH]1 (stereo not drawn) [tyrosine-ACV]
- effect on the uptake of [3H] Gly-Sar [7]: did not inhibit

Molecule: CC(C)[C@H](N)C(=O)N[C@H](C(=O)O)C(C)C [val-val, reference compound] (H-Val-Val-OH)
- effect on the uptake of [3H] Gly-Sar [7]: significantly inhibited

B1: hPEPT1 (Homo sapiens) (protein)
chain: MGMSKSHSFFGYPLSIFFIVVNEFCERFSYYGMRAILILYFTNFISWDDNLSTAIYHTFVALCYLTPILGALIADSWLGKFKTIVSLSIVYTIGQAVTSVSSINDLTDHNHDGTPDSLPVHVVLSLIGLALIALGTGGIKPCVSAFGGDQFEEGQEKQRNRFFSIFYLAINAGSLLSTIITPMLRVQQCGIHSKQACYPLAFGVPAALMAVALIVFVLGSGMYKKFKPQGNIMGKVAKCIGFAIKNRFRHRSKAFPKREHWLDWAKEKYDERLISQIKMVTRVMFLYIPLPMFWALFDQQGSRWTLQATTMSGKIGALEIQPDQMQTVNAILIVIMVPIFDAVLYPLIAKCGFNFTSLKKMAVGMVLASMAFVVAAIVQVEIDKTLPVFPKGNEVQIKVLNIGNNTMNISLPGEMVTLGPMSQTNAFMTFDVNKLTRINISSPGSPVTAVTDDFKQGQRHTLLVWAPNHYQVVKDGLNQKPEKGENGIRFVNTFNELITITMSGKVYANISSYNASTYQFFPSGIKGFTISSTEIPPQCQPNFNTFYLEFGSAYTYIVQRKNDSCPEVKVFEDISANTVNMALQIPQYFLLTCGEVVFSVTGLEFSYSQAPSNMKSVLQAGWLLTVAVGNIIVLIVAGAGQFSKQWAEYILFAALLLVVCVIFAIMARFYTYINPAEIEAQFDEDEKKNRLEKSNPYFMSGANSQKQM
notes: endogenous in cells; host or cells: Caco-2 (human colon carcinoma, ATCC)
- Km ([10]; Eadie-Hofstee): 1.42 ± 0.19 mM
- Vmax ([10]; Eadie-Hofstee): 0.071 µmol/min/mg
- Km ([10]; Lineweaver-Burk (control)): 2.04 ± 0.61^a mM
- Vmax ([10]; Lineweaver-Burk (control)): 0.086 µmol/min/mg
- Km ([10]; Michaelis-Menten): 1.63 ± 0.25 mM
- Vmax ([10]; Michaelis-Menten): 0.078 µmol/min/mg
